Tested on: CHOP, BiP, and DR5 mRNA in HCT116 cells
Assay: qPCR of UPR target transcripts (CHOP, BiP, DR5)
Type: cell-based, Homo sapiens
Settings: Rep 2; for avg. fold induction CHOP / avg. fold induction DR5 total / fold induction CHOP / fold induction DR5 total: relative to empty traffo; for avg. fold induction CHOP / avg. fold induction DR5 total: mean of 3 replicates
Method: Cells were grown in 6-well plates and harvested with 0.5 ml of TRIzol reagent (Life Technologies) per manufacturer’s protocol to extract RNA. For cDNA synthesis, 500 ng of total RNA was reverse transcribed with 2 μl of the SuperScript VILO master mix (Life Technologies # 11755050) in a total reaction volume of 10 μl following the manufacturer’s protocol for reaction temperature and duration. The reverse transcription product was diluted to 200 μl with 10 mM Tris-HCl pH 8.2 and used at 1:100 dilution for subsequent RT-PCR reactions.
PCR samples were prepared as described by manufacturer’s protocols from iQ SYBR Green Supermix (BioRad #17088800).
For each experiment, qRT-PCR reactions were set up in triplicate and run using a CFX96 Real Time System (Bio-Rad). Quantitation cycles were determined with CFX Manager 3.0 software (Bio-Rad) and then normalized to GAPDH as an internal control.

## INS-GFP: GFP-tagged proinsulin expressed from plasmid
3 hr
  avg. fold induction CHOP: 2.592
  avg. fold induction DR5 total: 0.7038
3 hr, replicate 1
  fold induction CHOP: 2.854
  fold induction DR5 total: 0.6229
  2^-(deltaCq) CHOP: 0.03284
  2^-(deltaCq) DR5 total: 0.01816
  Cq CHOP: 24.0903
  Cq DR5 total: 24.9448
  Cq(sample) - avg Cq(GAPDH), CHOP: 4.928
  Cq(sample) - avg Cq(GAPDH), DR5 total: 5.783
3 hr, replicate 2
  fold induction CHOP: 2.329
  fold induction DR5 total: 0.8572
  2^-(deltaCq) CHOP: 0.0268
  2^-(deltaCq) DR5 total: 0.02499
  Cq CHOP: 24.3837
  Cq DR5 total: 24.4842
  Cq(sample) - avg Cq(GAPDH), CHOP: 5.2218
  Cq(sample) - avg Cq(GAPDH), DR5 total: 5.322
3 hr, replicate 3
  fold induction CHOP: 2.592
  fold induction DR5 total: 0.6314
  2^-(deltaCq) CHOP: 0.02982
  2^-(deltaCq) DR5 total: 0.01841
  Cq CHOP: 24.2295
  Cq DR5 total: 24.9253
  Cq(sample) - avg Cq(GAPDH), CHOP: 5.068
  Cq(sample) - avg Cq(GAPDH), DR5 total: 5.763
7 hr
  avg. fold induction CHOP: 6.389
  avg. fold induction DR5 total: 1.383
7 hr, replicate 1
  fold induction CHOP: 6.347
  fold induction DR5 total: 1.604
  2^-(deltaCq) CHOP: 0.07302
  2^-(deltaCq) DR5 total: 0.04677
  Cq CHOP: 23.0759
  Cq DR5 total: 23.7188
  Cq(sample) - avg Cq(GAPDH), CHOP: 3.776
  Cq(sample) - avg Cq(GAPDH), DR5 total: 4.418
7 hr, replicate 2
  fold induction CHOP: 6.646
  fold induction DR5 total: 1.272
  2^-(deltaCq) CHOP: 0.07646
  2^-(deltaCq) DR5 total: 0.03708
  Cq CHOP: 23.0096
  Cq DR5 total: 24.0535
  Cq(sample) - avg Cq(GAPDH), CHOP: 3.709
  Cq(sample) - avg Cq(GAPDH), DR5 total: 4.753
7 hr, replicate 3
  fold induction CHOP: 6.175
  fold induction DR5 total: 1.275
  2^-(deltaCq) CHOP: 0.07103
  2^-(deltaCq) DR5 total: 0.03717
  Cq CHOP: 23.1157
  Cq DR5 total: 24.0502
  Cq(sample) - avg Cq(GAPDH), CHOP: 3.815
  Cq(sample) - avg Cq(GAPDH), DR5 total: 4.75
24 hr
  avg. fold induction CHOP: 5.115
  avg. fold induction DR5 total: 1.535
24 hr, replicate 1
  fold induction CHOP: 6.073
  fold induction DR5 total: 1.494
  2^-(deltaCq) CHOP: 0.06987
  2^-(deltaCq) DR5 total: 0.04358
  Cq CHOP: 23.5439
  Cq DR5 total: 24.225
  Cq(sample) - avg Cq(GAPDH), CHOP: 3.839
  Cq(sample) - avg Cq(GAPDH), DR5 total: 4.52
24 hr, replicate 2
  fold induction CHOP: 4.514
  fold induction DR5 total: 1.718
  2^-(deltaCq) CHOP: 0.05193
  2^-(deltaCq) DR5 total: 0.05009
  Cq CHOP: 23.972
  Cq DR5 total: 24.0239
  Cq(sample) - avg Cq(GAPDH), CHOP: 4.267
  Cq(sample) - avg Cq(GAPDH), DR5 total: 4.319
24 hr, replicate 3
  fold induction CHOP: 4.759
  fold induction DR5 total: 1.392
  2^-(deltaCq) CHOP: 0.05475
